Data reported in patent publication US20190183100A1, “ANIMAL MODELS FOR POLYCYSTIC KIDNEY DISEASE” (Recombinetics, Inc., priority 2017, published 2019).

Legend:
PKD1^FLEX-CreER2 = experiment: Tamoxifen activation of PKD1^FLEX-CreER2 cassette in LLC-PK1 cells in vitro; format: cell-based, pig; conditions: after tamoxifen treatment, LLC-PK1 targeted cells, expected
Protocol: Testing of PKD1^FLEX-CreER2 is conducted using the immortalized pig kidney cell line, LLC-PK1. Prior to conducting studies with the cassette integrated into cells, the efficacy of Cre recombination is optimized in transient transfections +/− tamoxifen and measure recombination by qPCR.
In vitro testing in the LLC-PK1, PKD1^FLEX-CreER2 targeted cells: The model cells developed above are treated in triplicate with 3 dosages of tamoxifen, and compared to non-treated cells. Percent recombination of the PKD1^FLEX-CreER2 cassette is analyzed visually for the loss of EGFP using FACS and molecularly by quantitative PCR for molecular quantification of recombination. Splicing of the PKD1^FLEX-CreER2 cassette is analyzed before and after recombination by RT-PCR from exon 14 to exon 16, followed by Sanger sequencing and qRT-PCR using primers spanning exon junctions of E14-15 and E15-16 respectively. Finally, induced and non-induced populations are compared at the protein level by western blotting.

porcine PKHD1 [1] = experiment: Surveyor assay (cutting) and RFLP analysis (HDR) in transfected pig fibroblasts; format: cell-based; conditions: for activity among the TALENs and CRISPR gRNAs tested for the target: comparison of reagents developed for the same target; for cutting, In Fibroblast Cells Incubated at 30° / RFLP, In Fibroblast Cells Incubated at 30° / cutting, In Fibroblast Cells Incubated at 37° / RFLP, In Fibroblast Cells Incubated at 37°: pig fibroblasts; for cutting, In Fibroblast Cells Incubated at 30° / RFLP, In Fibroblast Cells Incubated at 30°: 30 degrees C; for cutting, In Fibroblast Cells Incubated at 30° / cutting, In Fibroblast Cells Incubated at 37°: three days recovery, Surveyor assay; for RFLP, In Fibroblast Cells Incubated at 30° / RFLP, In Fibroblast Cells Incubated at 37°: with HDR template, RFLP assay; for cutting, In Fibroblast Cells Incubated at 37° / RFLP, In Fibroblast Cells Incubated at 37°: 37 degrees C
Excerpt: FIG. 12A, FIG. 12B: T36M introgression in cells. […] The region is highly conserved and threonine acid at position 36 in humans corresponds to residue 36 in pigs. Threonine acid 36 is identified in pig genomic DNA sequence, and […] (maroon arrow) are designed to cleave near T36. FIG. 12A also discloses SEQ ID NO: 118. […] It should be noted that position 3553 in pigs is a Valine residue and not pathogenic; henceforth this mutation will be referred to as either I3553T or V3553T. The cells were recovered for three days at 30 and 37 degrees C. prior to quantification of activity by the Surveyor assay and RFLP analysis with the Nsp1 restriction enzyme. The arrowheads depict the expected size of cleavage products for the Surveyor assay or RFLP assay.
A number of quality sites for TALENs and CRISPRs are ideally positioned for HDR mediated introgression the T36M mutation (Table 7, Table 8, Table 9). The assembled reagents are tested in pig fetal fibroblasts and embryos using standard operating procedures (SOPs) (FIG. 9B). Using these methods, hundreds of loci in pig and cattle have been successfully targeted, with efficiencies ranging from 5-75% in cultured cells.
For introgression of T36M into the porcine genome, two CRISPR Cas9 gRNAs and TALENs were tested in pig fibroblasts and embryos to optimize conditions (FIG. 12A, FIG. 12B, Table 7, Table 8, Table 9).

porcine PKHD1 [2] = experiment: Injection of in vivo produced porcine embryos, genotype of born piglets; parameters: species or system pig; conditions: 22 piglets, litters 115 and 116, condition C3
Protocol: Founder animals for ARPKD were produced using the process of Example 8 with minor changes. The T36M reagents (ssPKHD1 CRISPR 3.1 and template ssPKHD1 3.1 36 T to M) were injected into in vivo produced porcine embryos at the 1 or 2 cell stage. Condition C3 was used for injection and the 60 resulting embryos were split equally between to synchronized recipients. A total of 22 piglets were born, 14 from one surrogate (litter ID 115) and 8 from the other (litter ID 116). Newborn piglets were visually assessed for fitness and four, 115-1, 115-2, 115-3 and 115-8 were reluctant to suckle from their mothers and had visible abdominal distension (Table 14). […] Each of the remaining piglets was analyzed for a visible phenotype at 20 days of age (Table 14). Genotype of the piglet was a strong indicator of disease severity as 115-1, 115-2, 115-3 and 115-8 are predicted to have null mutations on each allele while mild cases had some combination of T36M mutation or single allele mutations (Table 14). Overall, ˜55% of offspring were mutant with 5 showing T36M mutations (Table 15). This rate is lower than observed above. A key difference is the embryos source. Parthenogenetic embryos were used in previous experiments where timing of activation is tightly controlled. In contrast, this experiment used in vivo produced embryos (bred sows, embryos collected ˜18 hours post fertilization) where timing is variable. However, the hypothesis that a variety of disease alleles and severities could be produced in a single litter was confirmed.

porcine PKHD1 [3] = experiment: Cytoplasmic injection of parthenogenetic pig embryos, single blastocyst RFLP assay and sequencing; format: cell-based; conditions: for RFLP In Embryos: pig embryos, with HDR template; for NHEJ n (%): R3229Q introgression
Protocol: The best performing combinations of TALENs and CRISPRs identified above, are evaluated in vitro by injection of in vitro matured (IVM) parthenogenetic pig embryos (FIG. 9C). […] In a small pilot study targeting porcine PDX1, 80% of alleles injected with a TALEN dosage of 40 ng/μl were able to be mutated, with nearly half of those directed to a particular edit by a homology template (FIG. 11B). FIG. 11A illustrates the steps required in production of in vitro matured pig embryos for microinjection. FIG. 11B illustrates the difference in percent success which using different concentrations of editing reagents for the PDX1 gene. A similar dosage escalation study is used to optimize for T36M introgression that balances survival of embryos in vitro with editing efficiency.
HDR efficiency was inversely associated with Cas9 dosage (50 vs 80% HDR) from highest to lowest concentration (Table 12 and FIG. 13A) likely a result of hyperactive cutting in the high concentration group. The fidelity of HDR events was further confirmed by sequencing (FIG. 13B) which confirms that the wild type triplet “ACA” coding, for threonine has been converted to “ATG” coding for methionine (FIG. 9A) using the template HDR sequence. Overall, condition C3, 25 ng/ul of Cas9, 12.5 ng/ul of gRNA and 50 ng/μl of ssHDR, was optimal for both blastocyst formation rate and HDR activity. If this site proves problematic, alternative missense mutations commonly observed in more than one family of ARPKD patients, such as I3553T, I222V, P805L or R3229Q are introgressed.
By the same process as Example 8, R3229Q was engineered into the PKHD1 gene. R3229Q is the equivalent mutation to R3240Q in humans (FIG. 16A), which in a homozygous state causes moderate ARPKD. Also, as noted previously, the annotation of PKHD1 has changed since initial contigs placed R3240Q in exon 58 versus exon 65. Also, R3240Q in humans, maps to different residue numbers in pigs based on transcript selected. […] Injections into parthenogenetic embryos were performed as before, with two conditions using a ssODN as the homology template ssPKHD1 65.1 3240 R to Q (Table 10); C1 (100/50/50) (Cas9 mRNA/gRNA65.1/homology template, all ng/μl) and C3 (25/12.5/50) (Cas9 mRNA/gRNA65.1/homology template, all ng/μl) (Table 9). […] HDR was also prevalent in the C3 condition (75%) whereas total mutation rate (indels+HDR alleles) was 100 and 95% for C1 and C3 respectively. […] Blastocyst 3.19 is homozygous for R3229Q while 3.12 has one HDR allele and one indel allele.

[4] = C1 (100/50/50) ng/μl Cas9/gRNA/ssODN, T36M template
[5] = C2 (50/25/50) ng/μl Cas9/gRNA/ssODN, T36M template
[6] = C3 (25/12.5/50) ng/μl Cas9/gRNA/ssODN, T36M template

Molecule	activity among the TALENs and CRISPR gRNAs tested for the target (porcine PKHD1 [1])	cutting, In Fibroblast Cells Incubated at 30° (porcine PKHD1 [1])	RFLP, In Fibroblast Cells Incubated at 30° (porcine PKHD1 [1])	cutting, In Fibroblast Cells Incubated at 37° (porcine PKHD1 [1])	RFLP, In Fibroblast Cells Incubated at 37° (porcine PKHD1 [1])	RFLP In Embryos (porcine PKHD1 [3])	other results
CC/C(=C(\c1ccccc1)c1ccc(OCCN(C)C)cc1)c1ccccc1 [tamoxifen]							activation of the integrated PKD1^FLEX-CreER2 cassette (PKD1^FLEX-CreER2): > 80%
ssPKHD1 CRISPR 3.1: CRISPR guide RNA (SEQ ID NO: 103) targeting exon 3 of porcine PKHD1, used with Cas9 mRNA and T36M HDR template (guide GGATTACCGTGTTCTTCGATGG; chemistry not given here)	greatest activity in cells	0% cutting	RFLP detected, too	30.8% cutting	RFLP 44.7%	80% RFLP	RFLP, In Fibroblast Cells Incubated at 37° (porcine PKHD1 [1]; listed as CRISPR 3.1): up to 44.7%; Heterozygous T36M % (number) (porcine PKHD1 [2]): 9% (2/22); Homozygous T36M % (number) (porcine PKHD1 [2]): 13.6% (3/22); Wild type % (number) (porcine PKHD1 [2]): 45.5% (10/22); Mutated n (%) (porcine PKHD1 [3]; [4]): 17 (94.4%); NHEJ^− n (%) (porcine PKHD1 [3]; [4]): 7 (38.8%); HDR^+ n (%) (porcine PKHD1 [3]; [5]): 11 (55.0%); Mutated n (%) (porcine PKHD1 [3]; [5]): 19 (95.0%); NHEJ^− n (%) (porcine PKHD1 [3]; [5]): 8 (40.0%); Mutated n (%) (porcine PKHD1 [3]; [6]): 19 (95.0%); NHEJ^− n (%) (porcine PKHD1 [3]; [6]): 3 (15.0%); embryos mutated (porcine PKHD1 [3]; CRISPR/Cas9 dosage of 25-100 ng/μl): Up to 95%; blastocyst formation rate (toxicity by embryo development analysis) (porcine PKHD1 [3]; cytoplasmic injection with HDR oligo at C1, C2, C3, highest in C3): high in each group
ssPKHD1 CRISPR 3.2: CRISPR guide RNA (SEQ ID NO: 104) targeting exon 3 of porcine PKHD1 (guide GCAGCCTCGCAGGGGGAACATGG; chemistry not given here)		0% cutting at 30	RFLP detected, too	0% cutting at 37	RFLP detected, too	0% RFLP	
ssPKHD1 CRISPR 65.1: CRISPR guide RNA (SEQ ID NO: 105) for R3229Q (human R3240Q) introgression into porcine PKHD1 (guide GGGGTCGAGTTGGTATATTGTGG; chemistry not given here)	greatest activity	Cutting detected, too	7.3% RFLP	Cutting detected, too	11% RFLP	89%	NHEJ n (%) (porcine PKHD1 [3]; C1 (100/50/50) ng/μl): 2 (10.5%); NHEJ n (%) (porcine PKHD1 [3]; C3 (25/12.5/50) ng/μl): 4 (15.0%)
